The text below walks through data of patent publication US10903496B2, “Rigid naphthalenediimide triangle structures” (Northwestern University, priority 2015, dated 2021).

The nature of series [1]: Solubility in non-aqueous electrolyte solvents. The series is classed as physicochemical. Particulars: for solubility in non-aqueous electrolyte solvents (in words): neutral state.
Series [2] in a line: Thermal gravimetric analysis (thermal stability). It is filed as physicochemical. As to the method:
Thermal stabilities were analyzed using a PerkinElmer Pyris Diamond TG/DTA analyzer. The temperature was increased from room temperature to 600° C. at a heating rate of 10° C. min^−1 under N2 atmosphere. […] The greater thermal stability of (−)-NDI-Δ is attributed to its higher molecular weight and more rigid structure compared to NDI-Ref.

≈ marks a conversion by molar mass, not a printed value. Read-outs that look alike come from different tables or passages of the source.

Take `O=C1c2ccc3c4c5ccc(c24)C(=O)N1C1CCCC[C@@H]1N1C(=O)c2ccc4c6c(ccc(c26)C1=O)C(=O)N(C4=O)[C@H]1CCCC[C@@H]1N1C(=O)c2ccc4c6c(ccc(c26)C1=O)C(=O)N(C4=O)C1CCCC[C@@H]1N(C3=O)C5=O` (single isomer, unassigned; (+)) [(+)-NDI-Δ]: the “solubility in non-aqueous electrolyte solvents (in words)” value in series [1] is given as “only sparingly soluble”.

On to `O=C1c2ccc3c4c5ccc(c24)C(=O)N1C1CCCC[C@H]1N1C(=O)c2ccc4c6c(ccc(c26)C1=O)C(=O)N(C4=O)C1CCCC[C@H]1N1C(=O)c2ccc4c6c(ccc(c26)C1=O)C(=O)N(C4=O)C1CCCC[C@H]1N(C3=O)C5=O` (single isomer, unassigned; (-)) [(−)-NDI-Δ], for which the “solubility in non-aqueous electrolyte solvents (in words)” value in series [1] is recorded as “only sparingly soluble”. Moreover, the “thermal stability: temperature up to which stable / at which decomposition starts” value in series [2] was 400 °C.

For `O=C1c2ccc3c4c(ccc(c24)C(=O)N1C1CCCCC1)C(=O)N(C1CCCCC1)C3=O` [NDI-Ref], in series [1] (electrolyte solvents), the “solubility in the electrolyte solvents” value was roughly 0.1 mg/mL (≈ 232 µM). In addition, the “solubility in non-aqueous electrolyte solvents (in words)” value in series [1] is recorded as “considerably more soluble”. In addition, the “thermal stability: temperature up to which stable / at which decomposition starts” value in series [2] (TGA, room temperature to 600° C. at 10° C. min^−1 under N2, one-step decomposition) worked out at 250 °C.
